Series [1] in a line: Systemic exposure in rats. The following applies: rat, in vivo, 10 mg/kg. The procedure: (§1) As noted above, the thiazolidinone is additionally well-suited to treating elderly patients because of its long duration of action and its substantial lack of undesirable side effects. Toxicologic properties of the thiazolidinone were evaluated in single-dose oral and intravenous (IV) studies in mice and rats and multidose oral studies in rats and dogs. The thiazolidinone was tested in dogs and monkeys in escalating-dose oral toxicity to determine the most sensitive nonrodent species. […] The initial 13-week dog study was repeated to evaluate the reproducibility of the perivascular effects. Dose range-finding studies were performed in pregnant rats and rabbits, and genotoxic potential was assessed in vitro and in vivo. […] Based on exposure at the no-effect dose in definitive studies, the rat appears to be the most sensitive species followed by the dog and the monkey, albeit with minor differences in exposure between the species.

The subject of the next series is iNOS, BV-2 microglia. Put plainly: iNOS expression in LPS-activated BV-2 microglia (Western blot). Type of series: cell-based. The procedure:
(§2) BV-2 microglia were grown in 6-well tissue culture plates in DMEM/F12 media supplemented with 10% fetal calf serum. Prior to activation, cells were given fresh media containing various amounts of thiazolidinone. One hour after drug treatment, microglia were activated with lipopolysaccharide (LPS, 4 μg/mL) and placed in an incubator at 37° C. in an atmosphere containing 5% CO2. After 16 hours, cultures were evaluated for inducible nitric oxide synthase (iNOS) activity and expression. iNOS activity was determined using the Griess reaction. Cell-free culture media was mixed with an equal volume of Griess reagent (one volume of 1.0% sulfanilamide in 5% phosphoric acid mixed with one volume of 0.1% naphthylenediamine dihydrochloride in water) and incubated for 5 minutes at room temperature. Absorbance was measured at 560 nm and the concentration within a sample was determined using sodium nitrite as standard. iNOS expression was evaluated by extracting cellular protein and performing Western blot analysis using a monoclonal antibody specific for iNOS.

In series [2] the test system is nitric oxide synthase, mixed cortical cultures. Description: Nitric oxide synthase activity / NO production in mixed cortical cultures. In kind it is cell-based, fetal Sprague-Dawley rat. Here is the method:
as §2
Experiments using mixed cortical cultures were performed as described above. […]
Cerebral ischemia can be modeled in vitro by lowering oxygen and glucose in the media of cortical neurons. […] Cultures were read every 2 to 3 days thereafter by half volume (100 μL) replacement with DME/F12 (10% horse serum).

Series [3] can be described thus: Toxicology studies in dogs. Type of series: in vivo, dog. The procedure:
as §1

Turning to `CC(C)(C)c1cc(/C=C2\SC(N)=NC2=O)cc(C(C)(C)C)c1O` [CI-1004, (Z)-5-[[3,5-bis(1,1-dimethylethyl)-4-hydroxyphenyl]methylene]-2-imino-4-thiazolidinone methanesulfonate], the “Cmax and AUC relative to male rats at the same dose” value in series [1] is “approximately twice those in male rats at the same dose”. This compound also registered a Cmax in series [1] (po) of 970 ng/mL. This compound showed an AUC(0-t) at 24 h in series [1] (po, male rats) of 16500 ng·h/mL. Moreover, in the series with iNOS, BV-2 microglia, the iNOS protein expression entry is given as “decrease in protein expression”. Further, the “increase in nitric oxide synthase activity on LPS activation” value in series [2] (10 μM, LPS-activated) is recorded as “prevented the increase in nitric oxide synthase activity”. For the same compound, in series [2] (non-LPS activated cultures), the “basal NO production” value is on record as “significant decrease in basal NO production”. Also, the hepatic enzyme induction result in series [3] is reported as “hepatic enzyme induction which was not associated with overt organ toxicity”. In addition, the gastrointestinal effects entry in series [3] (definitive 13-week studies) was “gastrointestinal effects”. In series [3] (initial 13-week study), the “perivascular mononuclear infiltrates in brain” value is “perivascular mononuclear infiltrates in brain were observed”.

A word on the Cmax: it is the maximum level reached in the sampled fluid or tissue. What is called AUC(0-t) is the area under the concentration-time curve up to a stated or last time point. The low end stands for less exposure, the high end for more exposure.

The values above are taken from US5912259A, “Method for treating and preventing neurodegenerative disorders by administering a thiazolidinone” (Warner-Lambert Company, priority 1998, dated 1999).
